{
  "source": "patent US20100298141A1",
  "about": "“SUBSTITUTED PYRIDINE N-OXIDE HERBICIDES” (E. I. DU PONT DE NEMOURS AND COMPANY, priority 2007, published 2010)",
  "key": {"rice": {"tested_on": "rice", "test": "Test B flooded paddy test", "assay_type": "in vivo, Oryza sativa", "conditions": "Flood, 250 g ai/ha, 13 to 15 days; scale 0 to 100, 0 no effect, 100 complete control", "description": "At time of treatment, test pots were flooded to 3 cm above the soil surface, treated by application of test compounds directly to the paddy water, and then maintained at that water depth for the duration of the test. Treated plants and controls were maintained in a greenhouse for 13 to 15 days, after which time all species were compared to controls and visually evaluated. […] A dash (-) response means no test result."}, "itchgrass": {"tested_on": "itchgrass", "test": "Test G preemergence test", "assay_type": "in vivo, Rottboellia cochinchinensis", "conditions": "scale 0 to 100"}, "blackgrass": {"tested_on": "blackgrass", "test": "Test D preemergence test", "assay_type": "in vivo, Alopecurus myosuroides", "conditions": "scale 0 to 100", "description": "(§1) Seeds of plant species selected from annual bluegrass (Poa annua), blackgrass (Alopecurus myosuroides), downy bromegrass (Bromus tectorum), field violet (Viola arvensis), green foxtail (Setaria viridis), Italian ryegrass (Lolium multiflorum), littleseed canarygrass (Phalaris minor), spring wheat (Triticum aestivum), wild oat (Avena fatua), […]), winter barley (Hordeum vulgare), and winter wheat (Triticum aestivum) were planted and treated preemergence with test chemicals formulated in a non-phytotoxic solvent mixture which included a surfactant. […] A dash (-) response means no test result."}, "annual bluegrass": {"tested_on": "annual bluegrass", "test": "Test D preemergence test", "assay_type": "in vivo, Poa annua", "conditions": "scale 0 to 100", "description": "as §1"}, "millet": {"tested_on": "millet", "test": "Test G preemergence test", "assay_type": "in vivo, Panicum miliaceum", "conditions": "scale 0 to 100"}, "barnyardgrass": {"tested_on": "barnyardgrass", "test": "Test E flooded paddy test", "assay_type": "in vivo, Echinochloa crus-galli", "conditions": "Flood, after 21 days, scale 0 to 100", "description": "(§2) Three plastic pots (ca. 16-cm diameter) per rate were partially filled with sterilized Tama silt loam soil comprising a 35:50:15 ratio of sand, silt and clay and 2.6% organic matter. Separate plantings for each of the three pots were as follows. Seeds from the U.S. of ducksalad (Heteranthera limosa), smallflower umbrella sedge (Cyperus difformis) and purple […] coccinea), were planted into one 16-cm pot for each rate. […] Seeds from the U.S. of barnyardgrass (Echinochloa crus-galli), late watergrass (Echinochloa oryzicola), early watergrass (Echinochloa oryzoides) and junglerice (Echinochloa colona) were planted into one 16-cm pot for each rate. Plantings were sequential so that crop and weed species were at the 2.0 to 2.5-leaf stage at time of treatment. Potted plants were grown in a greenhouse with day/night temperature settings of 30/27° C., and supplemental balanced lighting was provided to maintain a 16-hour photoperiod. Test pots were maintained in the greenhouse until test completion. At time of treatment, test pots were flooded to 3 cm above the soil surface, treated by application of test compounds directly to the paddy water, and then maintained at that water depth for the duration of the test. Effects of treatments on rice and weeds were visually evaluated by comparison to untreated controls after 21 days. […] A dash (-) response means no test result."}, "rice flatsedge": {"tested_on": "rice flatsedge", "test": "Test E flooded paddy test", "assay_type": "in vivo, Cyperus iria", "conditions": "Flood, after 21 days, scale 0 to 100", "description": "as §2"}, "[1]": {"tested_on": "transplanted rice seedlings", "test": "Test E flooded paddy test", "assay_type": "in vivo, Oryza sativa cv. ‘Japonica-M202’", "conditions": "Flood, after 21 days, scale 0 to 100", "description": "as §2"}, "early watergrass": {"tested_on": "early watergrass", "test": "Test E flooded paddy test", "assay_type": "in vivo, Echinochloa oryzoides", "conditions": "Flood, after 21 days, scale 0 to 100", "description": "as §2"}, "late watergrass": {"tested_on": "late watergrass", "test": "Test E flooded paddy test", "assay_type": "in vivo, Echinochloa oryzicola", "conditions": "Flood, after 21 days, scale 0 to 100", "description": "as §2"}, "bearded sprangletop": {"tested_on": "bearded sprangletop", "test": "Test E flooded paddy test", "assay_type": "in vivo, Leptochloa fascicularis", "conditions": "Flood, after 21 days, scale 0 to 100", "description": "as §2"}},
  "data": [
    {"smiles": "Cn1nc(C(F)(F)F)c(C[S+]([O-])c2ccc(Cl)c[n+]2[O-])c1OC(F)F", "note": "(stereo not shown) [Compound 6]", "values": [
      {"measurement": "Plant response rating, Rice, Transplanted", "setting": "rice", "value": 60}
    ]},
    {"smiles": "Cn1nc(C(F)(F)F)c(C(Cl)S(=O)(=O)c2cccc[n+]2[O-])c1Cl", "note": "(stereo not shown) [Compound 12]", "values": [
      {"measurement": "Plant response rating, Itchgrass", "setting": "itchgrass; 31 g ai/ha", "value": 0},
      {"measurement": "Plant response rating, Itchgrass", "setting": "itchgrass; 62 g ai/ha", "value": 0},
      {"measurement": "Plant response rating, Itchgrass", "setting": "itchgrass; 125 g ai/ha", "value": 0},
      {"measurement": "Plant response rating, Itchgrass", "setting": "itchgrass; 250 g ai/ha", "value": 0},
      {"measurement": "Plant response rating, Blackgrass", "setting": "blackgrass; 31 g ai/ha", "value": 0},
      {"measurement": "Plant response rating, Blackgrass", "setting": "blackgrass; 62 g ai/ha", "value": 0},
      {"measurement": "Plant response rating, Blackgrass", "setting": "blackgrass; 125 g ai/ha", "value": 100},
      {"measurement": "Plant response rating, Blackgrass", "setting": "blackgrass; 250 g ai/ha", "value": 100},
      {"measurement": "Plant response rating, Bluegrass", "setting": "annual bluegrass; 31 g ai/ha", "value": 60},
      {"measurement": "Plant response rating, Bluegrass", "setting": "annual bluegrass; 62 g ai/ha", "value": 100},
      {"measurement": "Plant response rating, Bluegrass", "setting": "annual bluegrass; 125 g ai/ha", "value": 100},
      {"measurement": "Plant response rating, Bluegrass", "setting": "annual bluegrass; 250 g ai/ha", "value": 100},
      {"measurement": "Plant response rating, Millet", "setting": "millet; 31 g ai/ha", "value": 50},
      {"measurement": "Plant response rating, Millet", "setting": "millet; 62 g ai/ha", "value": 50},
      {"measurement": "Plant response rating, Millet", "setting": "millet; 125 g ai/ha", "value": 100},
      {"measurement": "Plant response rating, Millet", "setting": "millet; 250 g ai/ha", "value": 100}
    ]},
    {"smiles": "C#CCOc1c(C[S+]([O-])c2cccc[n+]2[O-])c(C(F)(F)F)nn1C", "note": "(stereo not shown) [Compound 76]", "values": [
      {"measurement": "Plant response rating, Barnyardgrass", "setting": "barnyardgrass; 64 g ai/ha", "value": 0},
      {"measurement": "Plant response rating, Barnyardgrass", "setting": "barnyardgrass; 125 g ai/ha", "value": 60},
      {"measurement": "Plant response rating, Barnyardgrass", "setting": "barnyardgrass; 250 g ai/ha", "value": 85},
      {"measurement": "Plant response rating, Barnyardgrass", "setting": "barnyardgrass; 500 g ai/ha", "value": 95},
      {"measurement": "Plant response rating, Barnyardgrass", "setting": "barnyardgrass; 1000 g ai/ha", "value": 95},
      {"measurement": "Plant response rating, Flatsedge, Rice", "setting": "rice flatsedge; 64 g ai/ha", "value": 85},
      {"measurement": "Plant response rating, Flatsedge, Rice", "setting": "rice flatsedge; 125 g ai/ha", "value": 95},
      {"measurement": "Plant response rating, Flatsedge, Rice", "setting": "rice flatsedge; 250 g ai/ha", "value": 95},
      {"measurement": "Plant response rating, Flatsedge, Rice", "setting": "rice flatsedge; 500 g ai/ha", "value": 100},
      {"measurement": "Plant response rating, Flatsedge, Rice", "setting": "rice flatsedge; 1000 g ai/ha", "value": 100},
      {"measurement": "Plant response rating, Rice, Transplanted", "setting": "[1]; 64 g ai/ha", "value": 10},
      {"measurement": "Plant response rating, Rice, Transplanted", "setting": "[1]; 125 g ai/ha", "value": 10},
      {"measurement": "Plant response rating, Rice, Transplanted", "setting": "[1]; 1000 g ai/ha", "value": 40},
      {"measurement": "Plant response rating, Watergrass, Early", "setting": "early watergrass; 64 g ai/ha", "value": 0},
      {"measurement": "Plant response rating, Watergrass, Early", "setting": "early watergrass; 125 g ai/ha", "value": 50},
      {"measurement": "Plant response rating, Watergrass, Early", "setting": "early watergrass; 250 g ai/ha", "value": 75},
      {"measurement": "Plant response rating, Watergrass, Early", "setting": "early watergrass; 500 g ai/ha", "value": 100},
      {"measurement": "Plant response rating, Watergrass, Early", "setting": "early watergrass; 1000 g ai/ha", "value": 100},
      {"measurement": "Plant response rating, Watergrass, Late", "setting": "late watergrass; 64 g ai/ha", "value": 0},
      {"measurement": "Plant response rating, Watergrass, Late", "setting": "late watergrass; 125 g ai/ha", "value": 40},
      {"measurement": "Plant response rating, Watergrass, Late", "setting": "late watergrass; 250 g ai/ha", "value": 75},
      {"measurement": "Plant response rating, Watergrass, Late", "setting": "late watergrass; 500 g ai/ha", "value": 95},
      {"measurement": "Plant response rating, Watergrass, Late", "setting": "late watergrass; 1000 g ai/ha", "value": 95},
      {"measurement": "Plant response rating, Sprangletop, Brdd.", "setting": "bearded sprangletop; 64 g ai/ha", "value": 20},
      {"measurement": "Plant response rating, Sprangletop, Brdd.", "setting": "bearded sprangletop; 125 g ai/ha", "value": 70},
      {"measurement": "Plant response rating, Sprangletop, Brdd.", "setting": "bearded sprangletop; 250 g ai/ha", "value": 70},
      {"measurement": "Plant response rating, Sprangletop, Brdd.", "setting": "bearded sprangletop; 500 g ai/ha", "value": 65},
      {"measurement": "Plant response rating, Sprangletop, Brdd.", "setting": "bearded sprangletop; 1000 g ai/ha", "value": 65}
    ]},
    {"smiles": "Cc1cc[n+]([O-])c(S(=O)(=O)C(C)c2c(C(F)(F)F)nn(C)c2Cl)c1", "note": "(racemic) [Compound 14]", "values": [
      {"measurement": "Plant response rating, Itchgrass", "setting": "itchgrass; 31 g ai/ha", "value": 0},
      {"measurement": "Plant response rating, Itchgrass", "setting": "itchgrass; 62 g ai/ha", "value": 0},
      {"measurement": "Plant response rating, Itchgrass", "setting": "itchgrass; 125 g ai/ha", "value": 15},
      {"measurement": "Plant response rating, Itchgrass", "setting": "itchgrass; 250 g ai/ha", "value": 20},
      {"measurement": "Plant response rating, Blackgrass", "setting": "blackgrass; 31 g ai/ha", "value": 0},
      {"measurement": "Plant response rating, Blackgrass", "setting": "blackgrass; 62 g ai/ha", "value": 40},
      {"measurement": "Plant response rating, Blackgrass", "setting": "blackgrass; 125 g ai/ha", "value": 40},
      {"measurement": "Plant response rating, Blackgrass", "setting": "blackgrass; 250 g ai/ha", "value": 95},
      {"measurement": "Plant response rating, Bluegrass", "setting": "annual bluegrass; 31 g ai/ha", "value": 0},
      {"measurement": "Plant response rating, Bluegrass", "setting": "annual bluegrass; 62 g ai/ha", "value": 0},
      {"measurement": "Plant response rating, Bluegrass", "setting": "annual bluegrass; 125 g ai/ha", "value": 65},
      {"measurement": "Plant response rating, Bluegrass", "setting": "annual bluegrass; 250 g ai/ha", "value": 100},
      {"measurement": "Plant response rating, Millet", "setting": "millet; 31 g ai/ha", "value": 0},
      {"measurement": "Plant response rating, Millet", "setting": "millet; 62 g ai/ha", "value": 15},
      {"measurement": "Plant response rating, Millet", "setting": "millet; 125 g ai/ha", "value": 20},
      {"measurement": "Plant response rating, Millet", "setting": "millet; 250 g ai/ha", "value": 75}
    ]}
  ]
}
